Results from patent US11530244B2, “Cyclic polypeptides for PCSK9 inhibition” (priority 2018, dated 2022).
Starred links: 1 amine or outer side, 2 acyl side, 3 side chain; linkers in the order of their positions; H or OH if unused. Positions of bridges follow the written chain, without caps; N, C: chain ends. Non-standard residues stand in square brackets, D forms with d. Residues, ends and D or L forms follow the SMILES beside them. ξ: configuration not given here. Phe(3-CH2NH2) = O=C([C@H](Cc1cccc(CN[*:3])c1)N[*:1])[*:2]; X5 = O=C([C@@H]1C[C@H](SCc2ccc(C[*:3])cc2)CN1[*:1])[*:2]; Pro(cis-4-CF3) = O=C(O)[C@@H]1C[C@H](C(F)(F)F)CN1; Trp(5-F) = N[C@@H](Cc1c[nH]c2ccc(F)cc12)C(=O)O; ξPhe(4-COOH) = NC(Cc1ccc(C(=O)O)cc1)C(=O)O; X4 = O=C(CCSCc1cccc(CSCCN[*:1])c1)[*:2]; mXylylene = c1cc(C[*:1])cc(C[*:2])c1; AEF = NCCOc1ccc(C[C@H](N)C(=O)O)cc1; NMeY = CN[C@@H](Cc1ccc(O)cc1)C(=O)O; X8 = Clc1cc(C[*:1])cc(C[*:2])c1; αMeP = C[C@@]1(C(=O)O)CCCN1; dOrn = NCCC[C@@H](N)C(=O)O; Mpa = O=C(O)CCS

Legend:
Assay type in all cases: binding
PCSK9 [1] = molecular target: T1, PCSK9 (Homo sapiens (Human), UniProt Q8NBP7); assay: PCSK9 Alexa FRET Plus assay (displacement of AlexaFluor647 tagged cyclic peptide Reagent B); conditions: Alexa FRET Plus, 0.5 nM PCSK9, 960 nM AF cyclic peptide Reagent B; read-out: IC50
T1 sequence (Q8NBP7 153-692): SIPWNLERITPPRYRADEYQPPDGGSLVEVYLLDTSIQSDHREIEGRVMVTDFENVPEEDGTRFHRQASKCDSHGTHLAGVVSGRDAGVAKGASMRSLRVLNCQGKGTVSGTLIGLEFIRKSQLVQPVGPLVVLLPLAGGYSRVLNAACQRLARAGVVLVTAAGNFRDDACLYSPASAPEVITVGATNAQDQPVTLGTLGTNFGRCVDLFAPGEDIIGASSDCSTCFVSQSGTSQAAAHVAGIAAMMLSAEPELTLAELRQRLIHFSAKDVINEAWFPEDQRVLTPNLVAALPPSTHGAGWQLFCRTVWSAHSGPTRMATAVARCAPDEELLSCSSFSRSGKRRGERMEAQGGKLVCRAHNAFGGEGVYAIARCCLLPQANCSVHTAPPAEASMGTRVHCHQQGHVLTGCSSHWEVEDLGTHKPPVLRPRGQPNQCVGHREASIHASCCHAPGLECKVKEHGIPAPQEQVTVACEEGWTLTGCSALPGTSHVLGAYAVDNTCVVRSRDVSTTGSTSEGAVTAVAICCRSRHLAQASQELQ
How it was run: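 TR-FRET displacement with final 0.5 nM biotinylated PCSK9, 1.25 nM Strep-Eu and 960 nM AlexaFluor-tagged cyclic peptide in HEPES pH 7.4, NaCl, CaCl2, BSA, P20; ≥2 h at room temperature. IC50 from sigmoidal fit, converted to Ki using peptide KD. Falling europium counts flagged false positives.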

[2] = molecular target: human PCSK9 / human LDLR EGFa domain interaction (Homo sapiens (Human), UniProt Q8NBP7); assay: TR-FRET assay of inhibition of the PCSK9-LDLR protein-protein interaction; conditions: TR-FRET, 20 nM human PCSK9, 20 nM human LDLR EGFa domain, 2 hours room temperature; read-out: IC50
Sequence of human PCSK9 / human LDLR EGFa domain interaction (Q8NBP7 153-692): as above
Sequence of human PCSK9 / human LDLR EGFa domain interaction (Q8NBP7 31-152 partner): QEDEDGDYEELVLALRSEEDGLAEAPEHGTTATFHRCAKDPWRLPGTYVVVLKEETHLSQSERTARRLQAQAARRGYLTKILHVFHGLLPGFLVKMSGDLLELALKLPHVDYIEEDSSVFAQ
How it was run: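 20 nM biotin-avitag PCSK9 + 20 nM His-LDLR EGFa; 5 nM Ulight-SA / 5 nM Eu-anti-His; 2 h RT; HEPES 50 mM, NaCl 150 mM, CaCl2 5 mM, 0.01% BSA, 0.01% P20. Half-maximal inhibition, 4-parameter fit.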

PCSK9 [3] = molecular target: T1, PCSK9; assay: PCSK9 Alexa FRET Standard assay (displacement of AlexaFluor647 tagged cyclic peptide Reagent A); conditions: PCSK9 Alexa FRET Standard assay, 0.5 nM PCSK9, 20 nM AF cyclic peptide Reagent A; read-out: IC50
How it was run: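 TR-FRET displacement: 0.5 nM biotinylated PCSK9 with 1.25 nM Strep-Eu and 20 nM AlexaFluor-tagged cyclic peptide (final) in 50 mM HEPES pH 7.4, 0.15 M NaCl, 5 mM CaCl2, 0.01% BSA, 0.01% P20, ≥2 h at room temperature. IC50 from sigmoidal fit, converted to Ki via peptide KD; falling Eu counts flagged false positives.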

Row | IC50 (PCSK9 [1]) [nM] | IC50 [2] [nM] | IC50 (PCSK9 [3]) [nM] | SMILES
1 | 0.1 to 100 | 0.1 to 100 | 0.11 to 100 | NCCCC[C@@H]1NC(=O)CCSCc2cccc(c2)CSC[C@@H](C(N)=O)NC(=O)[C@@H]2C[C@H](C(F)(F)F)CN2C(=O)[C@H](Cc2ccc(O)cc2)NC(=O)[C@H](Cc2c[nH]cn2)NC(=O)[C@H](CC(=O)O)NC(=O)[C@H](Cc2c[nH]c3ccc(F)cc23)NC(=O)[C@H](Cc2c[nH]c3ccc(F)cc23)NC(=O)CNC1=O [Compound 296] ([Mpa]KG[Trp(5-F)][Trp(5-F)]DHY[Pro(cis-4-CF3)]C-NH2; linker 1-10 via mXylylene)
2 | 100 to 500 | 0.1 to 100 | 0.11 to 100 | CC(=O)N[C@@H]1CCCNC(=O)c2ccc(cc2)CC(C(N)=O)NC(=O)[C@]2(C)CCCN2C(=O)[C@H](Cc2ccc(O)cc2)NC(=O)[C@H](Cc2cnc[nH]2)NC(=O)[C@H](CC(=O)O)NC(=O)[C@H](Cc2c[nH]c3ccc(F)cc23)NC(=O)[C@H](Cc2c[nH]c3ccc(F)cc23)NC(=O)CNC1=O (stereo partly shown) [Compound 327] (Ac-[dOrn]G[Trp(5-F)][Trp(5-F)]DHY[αMeP][ξPhe(4-COOH)]-NH2; lactam 1-9)
3 | 500 to 5000 | 0.1 to 100 | 100 to 1000 | NCCCC[C@@H]1NC(=O)CCSCc2ccc(cc2)CS[C@H]2C[C@@H](C(N)=O)N(C2)C(=O)[C@H](Cc2ccc(O)cc2)NC(=O)[C@H](Cc2cnc[nH]2)NC(=O)[C@H](CC(=O)O)NC(=O)[C@H](Cc2c[nH]c3ccc(F)cc23)NC(=O)[C@H](Cc2c[nH]c3ccc(F)cc23)NC(=O)CNC1=O [Compound 328] ([Mpa]KG[Trp(5-F)][Trp(5-F)]DHY[X5]-NH2; thioether 1-9)
4 | 0.1 to 100 | 0.1 to 100 | 0.11 to 100 | COc1ccc(C[C@@H]2NC(=O)[C@H]([C@@H](C)OC)NC(=O)[C@H](CCC(=O)O)NC(=O)[C@H](Cc3c[nH]c4ccc(F)cc34)NC(=O)[C@H](Cc3cccc(CN)c3)NC(=O)[C@@H](C)NC(=O)[C@H](C)NC(=O)CCSCc3cccc(c3)CSCCNC(=O)[C@]3(C)CCCN3C2=O)cc1 [Compound 343] (cyclo(A[dA][Phe(3-CH2NH2)][Trp(5-F)]ET(Me)Y(Me)[αMeP][X4]))
5 | 100 to 500 | 0.1 to 100 | 0.11 to 100 | COc1ccc(C[C@@H]2NC(=O)[C@H](Cc3cnc[nH]3)NC(=O)[C@H](CC(=O)O)NC(=O)[C@H](Cc3c[nH]c4ccc(F)cc34)NC(=O)[C@H](Cc3c[nH]c4ccc(F)cc34)NC(=O)[C@@H](C)NC(=O)[C@H](CCCCN)NC(=O)[C@@H](NC(C)=O)CC(=O)NCCOc3ccc(cc3)C[C@@H](C(N)=O)NC(=O)[C@]3(C)CCCN3C2=O)cc1 [Compound 349] (Ac-DK[dA][Trp(5-F)][Trp(5-F)]DHY(Me)[αMeP][AEF]-NH2; lactam 1-10)
6 | 100 to 500 | 0.1 to 100 | 0.11 to 100 | C[C@@]12CCCN1C(=O)[C@H](Cc1ccc(O)cc1)NC(=O)[C@H](Cc1c[nH]cn1)NC(=O)[C@H](CC(=O)O)NC(=O)[C@H](Cc1c[nH]c3ccc(F)cc13)NC(=O)[C@H](Cc1c[nH]c3ccc(F)cc13)NC(=O)CNC(=O)[C@H](CCCCN)NC(=O)CCSCc1cc(Cl)cc(c1)CSC[C@@H](C(N)=O)NC2=O [Compound 358] ([Mpa]KG[Trp(5-F)][Trp(5-F)]DHY[αMeP]C-NH2; linker 1-10 via X8)
7 | 500 to 5000 |  | 100 to 1000 | COc1ccc(C[C@@H]2NC(=O)[C@@H]3CCCC/C=C\CC[C@@]4(CCCN4C2=O)C(=O)NCCSCc2cccc(c2)CSCCC(=O)N[C@@H](C)C(=O)N[C@H](C)C(=O)N[C@H]2Cc4cccc(c4)CNC(=O)CC[C@@H](C(=O)N3)N3C(=O)[C@@H](NC2=O)C3c2c[nH]c3ccc(F)cc23)cc1 (stereo partly shown) [Compound 524]
8 | 500 to 5000 |  | 100 to 1000 | COc1ccc(C[C@@H]2NC(=O)[C@H]([C@H](C)O)NC(=O)[C@@H]3CCCc4cn(nn4)CC[C@H](NC(=O)[C@@H](C)NC(=O)[C@H](C)NC(=O)CCSCc4cccc(c4)CSCCNC(=O)[C@]4(C)CCCN4C2=O)C(=O)N[C@@H](Cc2c[nH]c4ccc(F)cc24)C(=O)N3)cc1 [Compound 525]

Row | SMILES | IC50 (PCSK9 [1]) [nM] | IC50 [2] [nM] | IC50 (PCSK9 [3]) [nM]
9 | C[C@H]1NC(=O)[C@H](CCCCN)NC(=O)CCSCc2cccc(c2)CSCCNC(=O)[C@]2(C)CCCN2C(=O)[C@H](Cc2ccc(O)cc2)N(C)C(=O)[C@H](Cc2c[nH]cn2)NC(=O)[C@H](CC(=O)O)NC(=O)[C@H](Cc2c[nH]c3ccc(F)cc23)NC(=O)[C@H](Cc2c[nH]c3ccc(F)cc23)NC1=O [Compound 277] (cyclo(DH[NMeY][αMeP][X4]K[dA][Trp(5-F)][Trp(5-F)])) | 100 to 500 | 0.1 to 100 | 0.11 to 100
